No end group written: not given here.
Experiments:
Experiment in all cases: Antibiotic activity, MIC by standard methodology
Assay type in all cases: cell-based
C. albicans = test system: C. albicans
Text: (§1) Chemical synthesis of the sequence (SEQ ID NO. 4) corresponding to Peptides 1 and 2 (SEQ ID NOS: 1 and 2 respectively) containing native (unmodified) tryptophan was achieved by SPPS, using Fmoc chemistry.

E. coli = test system: E. coli
Text: as §1

P. aeruginosa = test system: P. aeruginosa
Text: as §1

S. aureus = test system: S. aureus
Text: as §1

## GFFKKAWRKVKHAGRRVLDTAKGVGRHYVNNWLNRYR [SEQ ID NO. 4]
C. albicans
  minimum inhibitory concentration (MIC): > 256 µg/mL
E. coli
  minimum inhibitory concentration (MIC): 8 µg/mL
P. aeruginosa
  minimum inhibitory concentration (MIC): 8 µg/mL
S. aureus
  minimum inhibitory concentration (MIC): 8 µg/mL
